For orientation: MIC means the lowest concentration found to suppress growth. A higher MIC goes with a need for much substance.

The source of these data is article PMC7582929, “Characterization of Cetacean Proline-Rich Antimicrobial Peptides Displaying Activity against ESKAPE Pathogens” (International Journal of Molecular Sciences, 2020).

Read-outs that look alike come from different tables or passages of the source. Ends that are not written are not given here. A value given as a limit tells only on which side of the number the result lay.

For one data set, the system named is E. coli BW25113—Δ SbmA. In kind it is cell-based, Escherichia coli. As to conditions: E. coli BW25113 ΔSbmA, median of n ≥ 3. From the text: (§1) The following microbial reference strains were utilized: Escherichia coli BW25113, E. coli ATCC 25922, E. coli ML35p, Enterococcus faecium ATCC 19434, Staphylococcus aureus ATCC 25923, Klebsiella pneumoniae ATCC 700603, Acinetobacter baumannii ATCC 19606, Pseudomonas aeruginosa ATCC 27853, Stenotrophomonas maltophilia ATCC 13637, Candida albicans ATCC 90029. The ΔsbmA strain of E. coli BW25113 belongs to the KEIO collection and the clinical isolate of Enterobacter agglomerans was kindly provided by Prof. C. Lagatolla from the Microbiology Laboratory of the University of Trieste. All the growth media were purchased from Difco (part of Thermo Fisher Scientific, MA, USA).
(§2) Bacteria were grown in Mueller-Hinton broth (MHB), except E. faecium, which was grown overnight in brain-heart infusion (BHI); E. coli BW25113 ΔsbmA was grown in the presence of 50 μg/mL kanamycin. C. albicans was grown in Sabouraud broth.
(§3) All the strains were grown overnight at 37 °C (except E. agglomerans, S. maltophilia and C. albicans, which were grown at 30 °C), with shaking at 140 rpm. The overnight bacterial cultures were then diluted approximately 1:40 in fresh growth medium and incubated at 37 °C or 30 °C with shaking (140 rpm) until an OD600 of between 0.3 and 0.5 was reached.
(§4) The minimum inhibitory concentration was determined by the broth microdilution method according to the NCCLS protocol. Briefly, an overnight bacterial or fungal culture was diluted in fresh MH or Sabouraud broth, respectively (300 µL O/N culture in 10 mL MHB/Sabouraud) and the culture was let grow at 37 °C or 30 °C to reach OD600 between 0.3 and 0.5. Serial two-fold dilutions of peptides were then performed in culture medium (Sabouraud, MHB or 20% MHB in PBS), to a final volume of 50 µL in the wells of a round bottom microtiter plate (Sarstedt, Milan, Italy), and then the bacterial suspension with a load of 5 × 10^5 CFU/mL was added to the plate, halving the final concentration of bacteria and peptides. The culture was grown at 37 °C or 30 °C and the MIC was determined after 18h by visual inspection as the first clear well. The assessment was performed taking into consideration at least three independent experiments performed in duplicate.

For data set [1], the system named is E. agglomerans—clinical isolate. In kind it is cell-based, Enterobacter agglomerans. As to conditions: 18 h.
Text: as §1, §2, §3, §4

The test system of data set [2] is human red blood cells (hRBCs). Format: cell-based. On the procedure:
Figure 4 Evaluation of in vitro toxicity of CePrAMPs. (A) Hemolysis assay against human red blood cells (hRBCs), re-suspended in PBS at 4% (v/v) concentrations, measured as the absorbance of released hemoglobin (540 nm) after 1 h of exposure to the peptides. Results are reported as percentages with respect to hRBCs treated for 1 h with 1% Triton X-100 (considered as 100%), and are the average of three independent experiments (n = 3); (B,C) Evaluation via MTT assay of the viability of the indicated eukaryotic cell lines after exposure to the peptides. HaCat (B) or MEC-1 (C) cells were incubated with the different peptides at increasing concentrations for 21 h (B) or 20 h (C), before treating cells with MTT. Results are reported as the percentage of viable cells with respect to the untreated control, and are the average of three independent experiments (n = 3) (* = p < 0.05; ** = p < 0.01).
The lytic potential towards eukaryotic cell membranes was assessed by measuring the release of hemoglobin from human red blood cells (hRBCs) after exposure to the peptides. hRBCs were collected from single donor- human whole blood (Cambridge Bioscience, UK), being isolated by centrifugation, washed three times with PBS, and resuspended to either 8% or 0.8% (v/v) in PBS. […]

A further data set concerns C. albicans ATCC 90029. Format: cell-based, Candida albicans. The note with it: ATCC 90029, 18 h.
Text: as §1, §2, §3, §4

Data set [3] deals with S. maltophilia ATCC 13637. Format: cell-based, Stenotrophomonas maltophilia. The note with it: ATCC 13637, 18 h.
Text: as §1, §2, §3, §4

The test system of a further data set is E. faecium ATCC 19434. In kind it is cell-based, Enterococcus faecium. As to conditions: ATCC 19434, 18 h.
Text: as §1, §2, §3, §4

Data set [4] has as its system bacterial protein synthesis (E. coli extracts). In words: In vitro transcription/translation assay (firefly luciferase reporter). Format: biochemical. The note with it: E. coli lysate, 30 °C, 1 h, increasing peptide concentrations up to 25 µM, n ≥ 3. On the procedure:
Several PrAMPs derived from artiodactyl or insect peptides act by interfering with bacterial protein synthesis. To evaluate if the cePrAMPs also targeted this process, in vitro transcription/translation assays were carried out in their presence, assessing the inhibition of the synthesis of a reporter luciferase (Figure 3). […].  Figure 3 Luciferase activity after in vitro transcription/translation reactions in presence of cePrAMPs. E. coli extracts were incubated with the firefly luciferase reporter DNA in the presence of increasing concentrations of cePrAMPs. Results are presented as the percentage with respect to control samples treated with only RNase-free water. Average and standard deviation of at least three independent experiments (n ≥ 3).
Reactions were set up using lysates of the RTS 100 E. coli HY kit from Biotechrabbit (Berlin, Germany) according to the user manual. Briefly, 1 μL of peptide solution was added to each reaction to reach the desired final concentration in a final volume of 6 μL. […] The presence of luciferase reporter protein was quantified by measuring its luminescence using a Infinite M200 plate reader (Tecan, Männedorf, Switzerland). The relative luminescence values for all the assays were calculated as a percentage of the positive control (reactions with nuclease-free water instead of the peptides) using three independent replicates. […]

The next data set concerns E. coli BW25113. In kind it is cell-based, Escherichia coli.
Text: as §1, §2, §3, §4

A further data set has as its system P. aeruginosa ATCC 27853. In kind it is cell-based, Pseudomonas aeruginosa. The note with it: 20% Mueller-Hinton broth in PBS, median of n ≥ 3.
Text: as §1, §2, §3
(§5) The minimum inhibitory concentration was determined by the broth microdilution method according to the NCCLS protocol. […]

The nature of data set [5]: Resuspension of the peptides in Mueller-Hinton broth. In kind it is physicochemical. The note with it: 100% Mueller-Hinton broth. An excerpt:
. To solve this issue and determine how it affected antimicrobial activity, bacterial susceptibility tests were repeated with most strains using 20% Mueller-Hinton broth. With some exceptions, these four peptides did indeed increase their activity in this medium, as did the others, in such a manner that the relative differences remained substantially unchanged (Table S1). Therefore, sequence-activity considerations remain valid.

Data set [6] relates to K. pneumoniae ATCC 700603. In kind it is cell-based, Klebsiella pneumoniae. As to conditions: 20% Mueller-Hinton broth in PBS, median of n ≥ 3.
Text: as §1, §2, §3, §5

In data set [7] the test system is panel of reference pathogenic bacterial and fungal strains. In kind it is cell-based.
Text: as §1, §2, §3, §4

For another data set, the system named is S. aureus ATCC 25923. Format: cell-based, Staphylococcus aureus. As to conditions: ATCC 25923, 18 h.
Text: as §1, §2, §3, §5

[8] abbreviates: 20% Mueller-Hinton broth in PBS.
[9] abbreviates: broth microdilution (NCCLS), Mueller-Hinton broth, 37 °C, 18 h, visual.
Where [10] appears, read: against P. aeruginosa and E. faecium.
[11] abbreviates: against all the Gram-negative pathogen and C. albicans.

For the sequence RRIPFWPIPLRWQWPPPWFPPSFPIPRISRKR [Del1], the MIC is 1 µM in the data set on E. coli BW25113—Δ SbmA (setting [8]); 8 µM against E. coli BW25113—Δ SbmA (setting [9]); 8 µM in data set [1]; 8 µM in the data set on C. albicans ATCC 90029; 4 µM in [3]; 4 µM with E. faecium ATCC 19434. The hemolytic effect result in data set [2] was “relatively high hemolytic effect”.
As for RRIPFWPPNLPGPRRPPWFLPDFRIPRIPRKR [Orc1], the minimal inhibitory concentration (MIC) was 2 µM against E. coli BW25113—Δ SbmA (setting [9]); 8 µM in data set [1]; 4 µM in the data set with C. albicans ATCC 90029; 2 µM in [3]; 16 µM against E. faecium ATCC 19434.
Turning to RRIRFPFPPFPWQWPPAGF [Neo1], the “inhibition of in vitro transcription/translation (luciferase activity)” value in data set [4] is given as “almost no inhibitory activity on protein synthesis”. The MIC in the data set with E. coli BW25113 (BW25113, 18 h) is on record as 24 µM; against E. coli BW25113 (E. coli BW25113, 20% Mueller-Hinton broth in PBS, median of n ≥ 3), 16 µM; in the data set with P. aeruginosa ATCC 27853, 64 µM; in data set [1], 64 µM; in the data set on C. albicans ATCC 90029, 32 µM; in data set [3] it was 24 µM. In addition, the MIC (in the data set on E. faecium ATCC 19434; in data set [6]) was over 64 µM each time. The “resuspension in growth medium” value in [5] is on record as “difficult to resuspend in 100% Mueller-Hinton broth”.
Turning to RRIRFRPPRLPRPRPRPWIPPRFPFPRIPGKR [Bal1], the MIC against E. coli BW25113—Δ SbmA (setting [8]) is 0.5 µM; in the data set on E. coli BW25113—Δ SbmA (setting [9]), 2 µM; in data set [1], 0.5 µM; in data set [7] (setting [10]) it was 2 to 4 µM; in data set [7] (against P. aeruginosa and E. faecium, listed as Bal) it was at most 4 µM; in data set [7] (setting [11]), at most 2 µM. In addition, the results for the MIC (in the data set with C. albicans ATCC 90029; in [3]; in the data set with E. faecium ATCC 19434) were 1.5 µM, 1 µM and 4 µM, respectively.
Turning to RRIRIRPPRLPRPRPRPWFPPRFPIPRIPGKR [Lip1], the MIC is 0.5 µM against E. coli BW25113—Δ SbmA (setting [8]); 1.5 µM in the data set on E. coli BW25113—Δ SbmA (setting [9]); 0.5 µM in [1]; 2 to 4 µM in [7] (setting [10]); at most 4 µM in data set [7] (against P. aeruginosa and E. faecium, listed as Lip); at most 2 µM in data set [7] (setting [11]). For the same sequence, the MIC turned out to be 2 µM in the data set on C. albicans ATCC 90029, 0.5 µM in [3] and 4 µM in the data set on E. faecium ATCC 19434.
Consider “RRIRPRPPRLPRPRPRPLPFPRPGPRPIPRPLPFP [Bac7(1-35), reference compound]”, for which the MIC with E. coli BW25113—Δ SbmA (setting [8]) turned out to be 2 µM; in the data set on E. coli BW25113—Δ SbmA (setting [9]) it was 8 µM; in data set [1] it was 0.5 µM; with C. albicans ATCC 90029, 2 µM; in [3], 1 µM; against E. faecium ATCC 19434, 64 µM. The MIC against S. aureus ATCC 25923 was over 64 µM.
